The record followed here is patent US20130252247A1, “KIT FOR SCREENING FOR SKIN-ACTIVATING SUBSTANCES AND COMPRISING THE KLOTHO GENE, AND METHOD FOR SCREENING FOR SKIN-ACTIVATING SUBSTANCES USING THE SAME” (Amorepacific Corporation, priority 2011, published 2013).

SMILES strings stand for the structures.

The subject of the assay is Klotho. As to the kind of experiment: Klotho expression in keratinocytes treated with retinoic acid and retinol, quantitative real-time PCR. Format: cell-based, human. How it is done:
In order to examine whether Klotho protein is expressed in skin cells, primers of SEQ ID NOS: 1 and 2, which can amplify Klotho gene (NCBI accession No. NM-004795), were constructed. Then, RT-PCR was performed using the primer set and a probe of SEQ ID NO: 3 (TaqMan™ fluorogenic probe) in order to detect Klotho mRNA in the cDNA of keratinocytes (NHK), fibroblasts (NHF), NHM-promoblack (Normal Human Epidermal Melanocytes (NHEM) juvenile foreskin, Promocell: melanocytes derived from dark-skinned persons), NHM-DP (NHM-dark pigment, Invitrogen: melanocytes derived from dark-skinned persons) and NHM-MP (NHM-moderate pigment, Invitrogen: melanocytes derived from Asian). The PCR reaction was performed for 35 cycles, each consisting of denaturation at 94° C. for 30 sec, annealing at 55° C. for 30 sec, and extension at 72° C. for 60 sec. As a positive control, the cDNA of human embryonic kidney cells (HEK293) known to express Klotho gene was used.
In order to examine the effects of retinoic acid and retinol (known as anti-aging substances) on the expression of Klotho in keratinocytes, quantitative real time PCR was performed under the same conditions as described in Test Example 1, and the expression levels of Klotho protein were examined at 2 days and 8 days after treatment of the cells with each of 0.1 μM and 1 μM of retinoic acid and 1 μM and 10 μM of retinol.

Consider `CC1=C(/C=C/C(C)=C/C=C/C(C)=C/CO)C(C)(C)CCC1` [retinol], for which, for the setting “keratinocytes, 8 days after treatment, 0.1 μM and 1 μM retinoic acid, 1 μM and 10 μM retinol, FIG. 3”, the “expression level of Klotho protein” value is given as “significantly increased”. The “expression of Klotho protein” value (summary statement, found using the kit) is on record as “increased”.
